This assay deals with T1, Human Factor XIIa (Homo sapiens, UniProt P00748).
T1 construct: purchased Enzyme Research Laboratories
T1 sequence (P00748 373-615 limits assumed): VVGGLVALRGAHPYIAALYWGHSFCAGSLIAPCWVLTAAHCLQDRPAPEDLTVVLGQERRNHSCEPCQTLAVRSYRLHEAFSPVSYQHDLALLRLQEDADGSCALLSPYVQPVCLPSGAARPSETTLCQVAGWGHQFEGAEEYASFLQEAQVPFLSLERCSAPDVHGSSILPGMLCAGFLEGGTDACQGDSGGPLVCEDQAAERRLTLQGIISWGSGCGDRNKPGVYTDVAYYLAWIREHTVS
T1 sequence (P00748 20-372 partner limits assumed): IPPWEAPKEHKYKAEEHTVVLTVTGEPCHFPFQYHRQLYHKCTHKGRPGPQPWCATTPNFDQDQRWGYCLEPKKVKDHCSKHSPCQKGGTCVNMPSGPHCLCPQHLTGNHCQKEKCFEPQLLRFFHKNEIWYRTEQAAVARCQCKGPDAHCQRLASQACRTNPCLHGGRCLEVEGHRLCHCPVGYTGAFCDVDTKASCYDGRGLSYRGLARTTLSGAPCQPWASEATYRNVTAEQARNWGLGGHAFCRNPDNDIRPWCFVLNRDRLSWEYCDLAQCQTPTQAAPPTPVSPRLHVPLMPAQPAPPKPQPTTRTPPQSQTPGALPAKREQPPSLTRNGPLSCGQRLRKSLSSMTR
In words: Determination of FXIIa inhibition (in vitro IC50 assay, fluorogenic substrate H-DPro-Phe-Arg-AFC). The note with it: human Factor XIIa; fluorogenic substrate H-DPro-Phe-Arg-AFC at Km concentration; 5 min, 25 °C; class symbols; read-out: Human FXIIa IC50. It counts as biochemical. On the procedure:
In vitro inhibition of Factor XIIa was determined using an IC50 assay based on standard literature methods (see e.g Baeriswyl et al., ACS Chem. Biol., 2015, 10 (8) 1861; Bouckaert et al., European Journal of Medicinal Chemistry 110 (2016) 181). Human Factor XIIa (Enzyme Research Laboratories) was incubated at 25 °C with the fluorogenic substrate H-DPro-Phe-Arg-AFC (Peptide Protein Science) and various concentrations of the test compound. Protease activity was measured by monitoring the accumulation of liberated fluorescence from the substrate over 5 min at 25 °C. The linear rate of fluorescence increase per minute was expressed as percentage (%) activity. The Km for the cleavage of the substrate by FXIIa was determined by standard transformation of the Michaelis-Menten equation. The compound inhibitor assays were performed at substrate Km concentration. IC50 values were calculated as the concentration of inhibitor giving 50% inhibition (IC50) of the uninhibited enzyme activity (100%).

What is called IC50 is the concentration at which inhibition is half-maximal.

With `Cn1ccc(OCC23CN(C(=O)NC4C5CC6CC(C5)CC4C6)C(CNc4cccc5c(N)nccc45)(C2)C3)cc1=O` (stereo not drawn) [Example 61, N-(adamantan-2-yl)-1-(((1-aminoisoquinolin-5-yl)amino)methyl)-4-(((1-methyl-2-oxo-1,2-dihydropyridin-4-yl)oxy)methyl)-2-azabicyclo[2.1.1]hexane-2-carboxamide], the IC50 lay in the range of 0.01 to 0.1 µM.
As to `Cc1cc(OCC23CN(C(=O)C(C)c4ccc5c(c4)CCO5)C(CNc4cccc5c(N)nccc45)(C2)C3)cc(=O)n1C` (stereo not drawn) [Example 28, 4-((1-(((1-aminoisoquinolin-5-yl)amino)methyl)-2-(2-(2,3-dihydrobenzofuran-5-yl)propanoyl)-2-azabicyclo[2.1.1]hexan-4-yl)methoxy)-1,6-dimethylpyridin-2(1H)-one], the IC50 fell in the range of 0.01 to 0.1 µM.
Next, `C[C@@H](NC(=O)N1CC2(COc3ccn(C)c(=O)c3)CC1(CNc1cccc3c(N)nccc13)C2)c1ccccc1` [Example 33, (R)-1-(((1-aminoisoquinolin-5-yl)amino)methyl)-4-(((1-methyl-2-oxo-1,2-dihydropyridin-4-yl)oxy)methyl)-N-(1-phenylethyl)-2-azabicyclo[2.1.1]hexane-2-carboxamide]: 0.01 to 0.1 µM; `Cn1ccc(OCC23CN(C(=O)C(C)(C)Oc4ccccc4)C(CNc4cccc5c(N)nccc45)(C2)C3)cc1=O` [Example 4, 4-((1-(((1-aminoisoquinolin-5-yl)amino)methyl)-2-(2-methyl-2-phenoxypropanoyl)-2-azabicyclo[2.1.1]hexan-4-yl)methoxy)-1-methylpyridin-2(1H)-one]: 0.1 to 0.3 µM; `Cc1cc(OCC23CN(C(=O)Nc4ccc5c(c4)CCCO5)C(CN(C)c4cccc5c(N)nccc45)(C2)C3)cc(=O)n1C` [Example 104, 1-(((1-aminoisoquinolin-5-yl)(methyl)amino)methyl)-N-(chroman-6-yl)-4-(((1,6-dimethyl-2-oxo-1,2-dihydropyridin-4-yl)oxy)methyl)-2-azabicyclo[2.1.1]hexane-2-carboxamide]: 0.01 to 0.1 µM.
Next, `Cc1cc(OCC23CN(C(=O)CC45CCC(CC4)C5)C(CNc4cccc5c(N)nccc45)(C2)C3)cc(=O)n1C` [Example 22, 4-((1-(((1-aminoisoquinolin-5-yl)amino)methyl)-2-(2-(bicyclo[2.2.1]heptan-1-yl)acetyl)-2-azabicyclo[2.1.1]hexan-4-yl)methoxy)-1,6-dimethylpyridin-2(1H)-one]: 0.01 to 0.1 µM; `COc1cccc(C2CCN(C(=O)N3CC4(COc5cc(C)n(C)c(=O)c5)CC3(CNc3cccc5c(N)nccc35)C4)C2)c1` (stereo not drawn) [Example 86, 4-((1-(((1-aminoisoquinolin-5-yl)amino)methyl)-2-(3-(3-methoxyphenyl)pyrrolidine-1-carbonyl)-2-azabicyclo[2.1.1]hexan-4-yl)methoxy)-1,6-dimethylpyridin-2(1H)-one]: 0.01 to 0.1 µM; `Cc1cc(OCC23CN(C(=O)NC4(c5ccccc5)CC4)C(CNc4cccc5c(N)nccc45)(C2)C3)cc(=O)n1C` [Example 57, 1-(((1-aminoisoquinolin-5-yl)amino)methyl)-4-(((1,6-dimethyl-2-oxo-1,2-dihydropyridin-4-yl)oxy)methyl)-N-(1-phenylcyclopropyl)-2-azabicyclo[2.1.1]hexane-2-carboxamide]: 0.001 to 0.01 µM.
Next, `CC(=O)N1CCC(CC(=O)N2CC3(COc4ccn(C)c(=O)c4)CC2(CNc2cccc4c(N)nccc24)C3)CC1` [Example 16, 4-((2-(2-(1-acetylpiperidin-4-yl)acetyl)-1-(((1-aminoisoquinolin-5-yl)amino)methyl)-2-azabicyclo[2.1.1]hexan-4-yl)methoxy)-1-methylpyridin-2(1H)-one]: 0.01 to 0.1 µM.
As to `C[C@H](NC(=O)N1CC2(COc3ccn(C)c(=O)c3)CC1(CNc1cccc3c(N)nccc13)C2)c1ccccc1` [Example 32, (S)-1-(((1-aminoisoquinolin-5-yl)amino)methyl)-4-(((1-methyl-2-oxo-1,2-dihydropyridin-4-yl)oxy)methyl)-N-(1-phenylethyl)-2-azabicyclo[2.1.1]hexane-2-carboxamide], the half-inhibitory concentration (IC50) lay in the range of 0.01 to 0.1 µM.
Next, `Cn1ccc(OCC23CN(C(=O)N4Cc5ccccc5C4)C(CNc4cccc5c(N)nccc45)(C2)C3)cc1=O` [Example 50, 4-((1-(((1-aminoisoquinolin-5-yl)amino)methyl)-2-(isoindoline-2-carbonyl)-2-azabicyclo[2.1.1]hexan-4-yl)methoxy)-1-methylpyridin-2(1H)-one]: 0.01 to 0.1 µM.
Consider `Cn1ccc(OCC23CN(C(=O)NCC4CCOCC4)C(CNc4cccc5c(N)nccc45)(C2)C3)cc1=O` [Example 77, 1-(((1-aminoisoquinolin-5-yl)amino)methyl)-4-(((1-methyl-2-oxo-1,2-dihydropyridin-4-yl)oxy)methyl)-N-((tetrahydro-2H-pyran-4-yl)methyl)-2-azabicyclo[2.1.1]hexane-2-carboxamide], for which the IC50 lay in the range of 0.01 to 0.1 µM.
Regarding `Cc1cc(OCC23CN(C(=O)N(C)C4COc5ccccc54)C(CNc4cccc5c(N)nccc45)(C2)C3)cc(=O)n1C` (stereo not drawn) [Example 90, 1-(((1-Aminoisoquinolin-5-yl)amino)methyl)-N-(2,3-dihydrobenzofuran-3-yl)-4-(((1,6-dimethyl-2-oxo-1,2-dihydropyridin-4-yl)oxy)methyl)-N-methyl-2-azabicyclo[2.1.1]hexane-2-carboxamide], the IC50 was 0.001 to 0.01 µM.
Regarding `Cc1cc(OCC23CN(C(=O)N4CCC5(C4)CC5(F)F)C(CNc4cccc5c(N)nccc45)(C2)C3)cc(=O)n1C` (stereo not drawn) [Example 89, 4-((1-(((1-aminoisoquinolin-5-yl)amino)methyl)-2-(1,1-difluoro-5-azaspiro[2.4]heptane-5-carbonyl)-2-azabicyclo[2.1.1]hexan-4-yl)methoxy)-1,6-dimethylpyridin-2(1H)-one], the IC50 was 0.01 to 0.1 µM.
On to `Cn1ccc(OCC23CN(C(=O)Nc4ccc5c(c4)CCCO5)C(CNc4cccc5c(N)nccc45)(C2)C3)cc1=O` [Example 52, 1-(((1-aminoisoquinolin-5-yl)amino)methyl)-N-(chroman-6-yl)-4-(((1-methyl-2-oxo-1,2-dihydropyridin-4-yl)oxy)methyl)-2-azabicyclo[2.1.1]hexane-2-carboxamide], for which the IC50 fell in the range of 0.0001 to 0.001 µM.
Next, `Cn1ccc(OCC23CN(C(=O)NC4CCC(S(=O)(=O)C5CCCCC5)CC4)C(CNc4cccc5c(N)nccc45)(C2)C3)cc1=O` (stereo not drawn) [Example 74, 1-(((1-aminoisoquinolin-5-yl)amino)methyl)-N-(4-(cyclohexylsulfonyl)cyclohexyl)-4-(((1-methyl-2-oxo-1,2-dihydropyridin-4-yl)oxy)methyl)-2-azabicyclo[2.1.1]hexane-2-carboxamide]: 0.01 to 0.1 µM; `Cn1ccc(OCC23CN(C(=O)NCCCOCc4ccccc4)C(CNc4cccc5c(N)nccc45)(C2)C3)cc1=O` [Example 82, 1-(((1-aminoisoquinolin-5-yl)amino)methyl)-N-(3-(benzyloxy)propyl)-4-(((1-methyl-2-oxo-1,2-dihydropyridin-4-yl)oxy)methyl)-2-azabicyclo[2.1.1]hexane-2-carboxamide]: 0.01 to 0.1 µM.
Consider `C[C@@H](c1ccccc1)N(C)C(=O)N1CC2(COc3ccn(C)c(=O)c3)CC1(CNc1cccc3c(N)nccc13)C2` [Example 42, (S)-1-(((1-aminoisoquinolin-5-yl)amino)methyl)-N-methyl-4-(((1-methyl-2-oxo-1,2-dihydropyridin-4-yl)oxy)methyl)-N-(1-phenylethyl)-2-azabicyclo[2.1.1]hexane-2-carboxamide], for which the IC50 lay in the range of 0.01 to 0.1 µM.
The value for `Cc1cc(OCC23CN(C(=O)N4CC(C5CCOCC5)C4)C(CNc4cccc5c(N)nccc45)(C2)C3)cc(=O)n1C` [Example 72, 4-((1-(((1-aminoisoquinolin-5-yl)amino)methyl)-2-(3-(tetrahydro-2H-pyran-4-yl)azetidine-1-carbonyl)-2-azabicyclo[2.1.1]hexan-4-yl)methoxy)-1,6-dimethylpyridin-2(1H)-one] was 0.01 to 0.1 µM; that for `C[C@H](C(=O)N1CC2(COc3ccn(C)c(=O)c3)CC1(CNc1cccc3c(N)nccc13)C2)c1ccccc1` [Example 13, (S)-4-((1-(((1-aminoisoquinolin-5-yl)amino)methyl)-2-(2-phenylpropanoyl)-2-azabicyclo[2.1.1]hexan-4-yl)methoxy)-1-methylpyridin-2(1H)-one] was 0.01 to 0.1 µM; that for `Cn1ccc(OCC23CN(C(=O)Cc4ccc5c(c4)CCCO5)C(CNc4cccc5c(N)nccc45)(C2)C3)cc1=O` [Example 15, 4-((1-(((1-Aminoisoquinolin-5-yl)amino)methyl)-2-(2-(chroman-6-yl)acetyl)-2-azabicyclo[2.1.1]hexan-4-yl)methoxy)-1-methylpyridin-2(1H)-one] was 0.001 to 0.01 µM.

(Values after US20260347347A1, “2-AZA-AND 2-OXABICYCLO[2.1.1]HEXANE DERIVATIVES AS FACTOR XIIA ENZYME INHIBITORS” (KALVISTA PHARMACEUTICALS LIMITED, priority 2022, published 2026).)
